The record followed here is paper PMC12155096 (International Journal of Molecular Sciences, 2025).

The structures appear in SMILES notation. Read-outs that look alike come from different tables or passages of the source.

Series [1] has as its target T1, human CYP1A2 (Homo sapiens, UniProt P05177).
T1 sequence (P05177 1-516): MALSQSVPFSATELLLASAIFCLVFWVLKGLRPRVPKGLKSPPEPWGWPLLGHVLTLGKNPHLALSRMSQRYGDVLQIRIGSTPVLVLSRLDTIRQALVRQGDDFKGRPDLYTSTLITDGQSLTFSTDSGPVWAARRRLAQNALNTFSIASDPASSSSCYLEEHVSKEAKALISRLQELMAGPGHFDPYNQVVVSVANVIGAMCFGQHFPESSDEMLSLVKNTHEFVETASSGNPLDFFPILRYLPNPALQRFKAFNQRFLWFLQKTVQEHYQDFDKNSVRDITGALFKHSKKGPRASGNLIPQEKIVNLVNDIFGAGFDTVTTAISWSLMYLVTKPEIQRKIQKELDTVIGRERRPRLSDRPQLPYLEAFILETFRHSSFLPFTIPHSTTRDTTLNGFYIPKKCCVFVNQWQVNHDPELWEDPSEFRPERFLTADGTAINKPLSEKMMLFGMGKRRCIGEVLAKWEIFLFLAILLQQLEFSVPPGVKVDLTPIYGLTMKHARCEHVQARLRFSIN

In series [2] the target is human CYP2C19 (Homo sapiens, UniProt P33261).
Sequence of human CYP2C19 (P33261 whole entry): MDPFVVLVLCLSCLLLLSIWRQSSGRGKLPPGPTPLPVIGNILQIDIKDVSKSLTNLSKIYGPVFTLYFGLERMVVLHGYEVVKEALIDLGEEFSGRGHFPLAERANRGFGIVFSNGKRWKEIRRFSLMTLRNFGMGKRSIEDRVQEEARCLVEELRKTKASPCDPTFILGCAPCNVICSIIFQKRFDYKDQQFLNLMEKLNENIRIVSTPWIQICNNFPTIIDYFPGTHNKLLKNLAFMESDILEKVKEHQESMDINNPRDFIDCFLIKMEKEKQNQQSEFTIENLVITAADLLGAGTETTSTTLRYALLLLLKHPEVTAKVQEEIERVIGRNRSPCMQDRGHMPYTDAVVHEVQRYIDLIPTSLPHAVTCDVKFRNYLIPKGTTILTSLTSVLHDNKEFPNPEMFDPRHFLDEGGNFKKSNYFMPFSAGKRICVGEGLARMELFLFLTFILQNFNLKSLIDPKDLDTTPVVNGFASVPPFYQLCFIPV
Series [3] has as its target CYP3A4 (Homo sapiens, UniProt P08684).
Series [4] has as its target Photinus pyralis (firefly) luciferase (Photinus pyralis, UniProt P08659). In words: biochemical. Type of series: biochemical.
Series [5] concerns the target human CYP2C9 (Homo sapiens, UniProt P11712).
In series [6] the target is human CYP2D6 (Homo sapiens, UniProt P10635).
Sequence of human CYP2D6 (P10635 whole entry): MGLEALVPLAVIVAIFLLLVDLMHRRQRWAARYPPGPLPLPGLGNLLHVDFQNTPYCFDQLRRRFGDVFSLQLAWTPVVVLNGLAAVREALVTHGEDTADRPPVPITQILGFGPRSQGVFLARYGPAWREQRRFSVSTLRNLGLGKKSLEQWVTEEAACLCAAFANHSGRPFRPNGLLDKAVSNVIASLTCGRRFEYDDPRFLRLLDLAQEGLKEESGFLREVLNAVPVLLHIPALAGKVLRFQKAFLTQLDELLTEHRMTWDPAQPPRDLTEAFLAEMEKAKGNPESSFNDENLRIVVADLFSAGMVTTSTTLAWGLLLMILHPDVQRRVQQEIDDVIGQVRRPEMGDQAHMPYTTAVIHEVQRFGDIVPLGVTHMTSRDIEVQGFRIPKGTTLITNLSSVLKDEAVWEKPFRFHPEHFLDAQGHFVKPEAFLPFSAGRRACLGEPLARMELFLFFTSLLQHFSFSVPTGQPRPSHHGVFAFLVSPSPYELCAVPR
Where [7] appears, read: read-out: Luciferase IC50 (half-maximal inhibitory concentration).

Sequence of CYP3A4 (P08684 whole entry): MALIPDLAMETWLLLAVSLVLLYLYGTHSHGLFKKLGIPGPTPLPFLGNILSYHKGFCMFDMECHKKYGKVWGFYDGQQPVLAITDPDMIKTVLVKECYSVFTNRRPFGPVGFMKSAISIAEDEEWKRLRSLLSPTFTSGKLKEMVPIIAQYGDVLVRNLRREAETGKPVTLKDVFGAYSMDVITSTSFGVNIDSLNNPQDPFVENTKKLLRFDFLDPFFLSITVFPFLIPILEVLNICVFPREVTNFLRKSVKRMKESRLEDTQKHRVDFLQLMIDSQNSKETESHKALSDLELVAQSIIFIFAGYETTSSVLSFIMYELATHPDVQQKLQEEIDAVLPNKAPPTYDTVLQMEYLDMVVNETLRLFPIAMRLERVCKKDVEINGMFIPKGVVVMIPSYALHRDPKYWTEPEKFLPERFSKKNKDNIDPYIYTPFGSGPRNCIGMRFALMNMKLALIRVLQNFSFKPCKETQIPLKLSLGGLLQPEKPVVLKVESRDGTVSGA
Sequence of Photinus pyralis (firefly) luciferase (P08659 whole entry): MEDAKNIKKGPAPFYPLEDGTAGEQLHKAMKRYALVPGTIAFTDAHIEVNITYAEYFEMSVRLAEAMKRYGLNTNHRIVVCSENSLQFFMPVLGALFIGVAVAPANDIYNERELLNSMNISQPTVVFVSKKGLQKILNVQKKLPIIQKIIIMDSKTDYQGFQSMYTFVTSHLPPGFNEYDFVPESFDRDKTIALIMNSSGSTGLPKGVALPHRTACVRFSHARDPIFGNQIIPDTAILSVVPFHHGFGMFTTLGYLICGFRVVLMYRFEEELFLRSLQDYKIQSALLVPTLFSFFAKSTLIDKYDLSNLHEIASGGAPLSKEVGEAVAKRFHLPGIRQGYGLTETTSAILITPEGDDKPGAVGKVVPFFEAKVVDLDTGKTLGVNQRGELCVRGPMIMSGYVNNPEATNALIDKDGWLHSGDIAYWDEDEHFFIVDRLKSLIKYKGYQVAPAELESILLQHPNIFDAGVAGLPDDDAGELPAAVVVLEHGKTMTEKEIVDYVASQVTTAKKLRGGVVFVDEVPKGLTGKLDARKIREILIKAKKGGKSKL
Sequence of human CYP2C9 (P11712 whole entry): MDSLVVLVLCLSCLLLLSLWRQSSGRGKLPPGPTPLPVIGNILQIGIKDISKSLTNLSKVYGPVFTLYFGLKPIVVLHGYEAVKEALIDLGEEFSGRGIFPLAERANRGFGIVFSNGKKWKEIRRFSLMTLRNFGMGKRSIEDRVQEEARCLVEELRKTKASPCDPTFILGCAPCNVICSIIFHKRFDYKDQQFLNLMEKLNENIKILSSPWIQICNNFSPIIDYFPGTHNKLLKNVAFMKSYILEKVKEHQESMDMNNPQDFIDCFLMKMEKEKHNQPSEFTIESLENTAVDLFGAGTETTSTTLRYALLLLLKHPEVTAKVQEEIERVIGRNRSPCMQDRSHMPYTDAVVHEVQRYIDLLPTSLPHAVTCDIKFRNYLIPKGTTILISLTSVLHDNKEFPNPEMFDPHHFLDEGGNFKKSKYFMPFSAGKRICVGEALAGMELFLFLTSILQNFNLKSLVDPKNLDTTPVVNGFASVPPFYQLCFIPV

On to `COc1cc2c(cc1N)oc1ccccc12` [2-Methoxy-3-aminodibenzofuran], for which the IC50 in series [1] is 0.63 µM; in series [2], 3.95 µM; in series [3] it was 8.5 µM; in series [4] (setting [7]), 54.6 µM; in series [5] it was 6.23 µM; in series [6] it was 7.61 µM.

Take `CCOP(=O)([O-])OCC.CCn1cc[n+](C)c1`: in series [1], the “CYP1A2 Efficacy (in parenthesis)” value is recorded as 78.99 ± 0 (-105 ± 5) % and the IC50 came to 79 µM. Besides, in series [2], the “CYP2C19 Efficacy (in parenthesis)” value is 68.44 ± 11.66 (-161 ± 32) % and the IC50 turned out to be 68.4 µM. In series [3], the “CYP3A4 Efficacy (in parenthesis)” value is 45.03 ± 9.43 (-76 ± 7) % and the IC50 was 45 µM. Also, the “Luciferase Efficacy (in parenthesis)” value in series [4] is 86.36 ± 7.02 (-39 ± 30) %. The IC50 in series [4] (setting [7]) came out at 86.4 µM. Besides, in series [5], the “CYP2C9 Efficacy (in parenthesis)” value was 58.2 ± 3.94 (-117 ± 2) % and the IC50 was 58.2 µM. Moreover, in series [6], the “CYP2D6 Efficacy (in parenthesis)” value was 0.61 ± 0.29 (-97 ± 6) % and the IC50 is 0.61 µM.

Regarding `CCOc1cc(OCC)c(C(C)=O)cc1OCC` [2,4,5-Triethoxyacetophenone], the IC50 stood at 0.87 µM in series [1], 65 µM in series [2], 58.5 µM in series [3] and 69.8 µM in series [6]. In series [4], the “Luciferase IC50 (half-maximal inhibitory concentration)” value is on record as “Inactive”. In addition, the “CYP2C9 Efficacy” value in series [5] was 37.98 ± 5.23 (-54 ± 11) %.

Consider `COc1cc(-c2ccc(N)c(OC)c2)ccc1N.Cl.Cl` [3,3'-Dimethoxybenzidine dihydrochloride], for which the IC50 stood at 0.82 µM in series [1]; 7.39 µM in series [2]; 1.71 µM in series [3]; 60.4 µM in series [4] (setting [7]); 8.91 µM in series [5]; 30.4 µM in series [6].

Consider `Cc1oc(=O)oc1COC(=O)[C@@H]1N2C(=O)[C@@H](NC(=O)[C@H](N)c3ccccc3)[C@H]2SC1(C)C.Cl` [Lenampicillin hydrochloride], for which the “CYP1A2 IC50 (half-maximal inhibitory concentration)” value in series [1] was “Inactive”. Moreover, the “CYP2C19 IC50 (half-maximal inhibitory concentration)” value in series [2] is reported as “Inactive”. Besides, the IC50 in series [3] was determined as 0.62 µM; in series [5], 41.3 µM. In addition, in series [4], the “Luciferase IC50 (half-maximal inhibitory concentration)” value is reported as “Inactive”. Besides, in series [6], the “CYP2D6 IC50 (half-maximal inhibitory concentration)” value is reported as “Inactive”.

The AC50 is the concentration giving half of the maximal activity seen. The low end stands for activity at low concentration, the high end for activity only at high concentration. Turning to `OCC(c1ccc(Cl)cc1)c1ccc(Cl)cc1` [2,2-Bis(4-chlorophenyl)ethanol], in series [1], the “CYP1A2 Efficacy” value is 34.28 ± 2.23 (-78 ± 6) %, the “CYP1A2 Efficacy (in parenthesis)” value is 34.28 ± 2.23 (-78 ± 6) % and the IC50 was 34.3 µM. For the same compound, in series [2], the “CYP2C19 Efficacy” value is listed as 0.14 ± 0.07 (-161 ± 31) %, the “CYP2C19 Efficacy (in parenthesis)” value is 0.14 ± 0.07 (-161 ± 31) % and the IC50 was determined as 0.14 µM. Moreover, in series [3], the AC50 stood at 18.7 µM, the “CYP3A4 Efficacy (in parenthesis)” value is 18.71 ± 6.46 (64 ± 10) % and the “CYP3A4 IC50 (half-maximal inhibitory concentration)” value is 18.71 ± 6.46 (64 ± 10) µM. The “Luciferase IC50 (half-maximal inhibitory concentration)” value in series [4] is recorded as “Inactive”. Further, in series [5], the concentration at half-maximal activity (AC50) was 11.7 µM, the “CYP2C9 Efficacy” value is recorded as 11.71 ± 0.79 (-108 ± 10) % and the “CYP2C9 Efficacy (in parenthesis)” value is listed as 11.71 ± 0.79 (-108 ± 10) %. Besides, the “CYP2D6 IC50 (half-maximal inhibitory concentration)” value in series [6] is “Inactive”.

Take `Cl.Cl.NCCNc1cccc2ccccc12`: the “CYP1A2 Efficacy” value in series [1] is 0.57 ± 0.07 (-100 ± 5) %. For the same compound, the “CYP2C19 Efficacy” value in series [2] was 24.7 ± 6.17 (-146 ± 5) %. This compound also registered an IC50 in series [3] of 31.8 µM. For the same compound, the “Luciferase IC50” value in series [4] was “Inactive”. For the same compound, the “CYP2C9 Efficacy” value in series [5] is 17.25 ± 2.37 (-110 ± 3) %. The “CYP2D6 Efficacy” value in series [6] is 5.04 ± 0.58 (-104 ± 5) %.

For `CC(=O)O.CC(C)c1ccc2c(c1)CC[C@H]1[C@](C)(CN)CCC[C@]21C` [Dehydroabietylamine acetate], in series [1], the “CYP1A2 Efficacy (in parenthesis)” value is reported as 38.64 ± 5.32 (-53 ± 5) % and the IC50 amounted to 38.6 µM. Also, in series [2], the “CYP2C19 Efficacy (in parenthesis)” value was 14.98 ± 6.91 (-121 ± 11) % and the IC50 was 15 µM. In series [3], the “CYP3A4 Efficacy (in parenthesis)” value is 0.41 ± 0.13 (-82 ± 3) % and the IC50 came to 0.41 µM. Moreover, in series [4], the “Luciferase IC50 (half-maximal inhibitory concentration)” value is given as “Inactive”. Besides, in series [5], the “CYP2C9 Efficacy (in parenthesis)” value is reported as 42.19 ± 26.12 (-70 ± 20) % and the IC50 turned out to be 42.2 µM. Further, in series [6], the “CYP2D6 Efficacy (in parenthesis)” value is recorded as 1.51 ± 0.43 (-90 ± 10) % and the IC50 worked out at 1.51 µM.

Regarding `O=S(=O)(O)C(F)(F)C(F)(F)C(F)(F)C(F)(F)C(F)(F)C(F)(F)C(F)(F)C(F)(F)F` [PFOS], the IC50 in series [1] is 32.3 µM; in series [2], 23.4 µM; in series [3] it was 80 µM; in series [4] (setting [7]), 71.3 µM; in series [5] it was 0.51 µM; in series [6], 28.4 µM.

Consider `CCCCCCCCCCCCCCCCCC[N+](C)(C)Cc1ccccc1.[Cl-]`, for which, in series [1], the “CYP1A2 Efficacy” value is reported as 80.42 ± 0 (-111 ± 16) %. Moreover, in series [2], the “CYP2C19 Efficacy” value is 48.63 ± 14.39 (-147 ± 23) %. For the same compound, the IC50 amounted to 45.9 µM in series [3] and 87 µM in series [4] (read-out: Luciferase IC50). For the same compound, in series [5], the “CYP2C9 Efficacy” value was 38.84 ± 2.53 (-102 ± 5) %. Besides, the “CYP2D6 Efficacy” value in series [6] is given as 0.67 ± 0.43 (-99 ± 3) %.

On to `CC(C)CC(N(C)C)C1(c2ccc(Cl)cc2)CCC1.Cl` (stereo not drawn) [Sibutramine hydrochloride], for which the “CYP1A2 IC50 (half-maximal inhibitory concentration)” value in series [1] is listed as “Inactive”. Besides, in series [2], the “CYP2C19 Efficacy (in parenthesis)” value is given as 8.47 ± 1.44 (-127 ± 8) % and the IC50 was determined as 8.47 µM. In series [3], the “CYP3A4 Efficacy (in parenthesis)” value is on record as 0.94 ± 0.06 (-73 ± 3) % and the IC50 was 0.94 µM. Besides, the “Luciferase IC50 (half-maximal inhibitory concentration)” value in series [4] is listed as “Inactive”. Besides, in series [5], the “CYP2C9 IC50 (half-maximal inhibitory concentration)” value is on record as “Inactive”. In series [6], the “CYP2D6 Efficacy (in parenthesis)” value is listed as 4.24 ± 0.72 (-88 ± 6) % and the IC50 turned out to be 4.24 µM.

As for `O=C1CCCc2c1cc1ccc3cccc4ccc2c1c34` [9,10-Dihydrobenzo[a]pyren-7(8H)-one], the “CYP1A2 Efficacy (in parenthesis)” value in series [1] is reported as 0.28 ± 0.05 (-100 ± 3) %. Besides, the IC50 in series [1] was 0.28 µM; in series [2], 26.3 µM; in series [3], 9.09 µM; in series [4] (setting [7]), 9.87 µM; in series [5], 5.32 µM. Moreover, the “CYP2C19 Efficacy (in parenthesis)” value in series [2] is on record as 26.27 ± 7.32 (-125 ± 17) %. For the same compound, the “CYP3A4 Efficacy (in parenthesis)” value in series [3] is 9.09 ± 1.05 (-72 ± 4) %. The “Luciferase Efficacy (in parenthesis)” value in series [4] was 9.87 ± 1.68 (-53 ± 7) %. In series [5], the “CYP2C9 Efficacy (in parenthesis)” value is given as 5.32 ± 0.68 (-71 ± 3) %. Moreover, the “CYP2D6 IC50 (half-maximal inhibitory concentration)” value in series [6] was “Inactive”.

As for `COc1cccc(CCc2ccccc2OCC(CN(C)C)OC(=O)CCC(=O)O)c1.Cl` (stereo not drawn) [Sarpogrelate hydrochloride], the IC50 amounted to 16.2 µM in series [1], 36.8 µM in series [2] and 6.72 µM in series [3]. Moreover, in series [4], the “Luciferase IC50 (half-maximal inhibitory concentration)” value was “Inactive”. For the same compound, the “CYP2C9 IC50 (half-maximal inhibitory concentration)” value in series [5] is recorded as “Inactive”. The “CYP2D6 Efficacy” value in series [6] is 0.42 ± 0.24 (-101 ± 2) %.

In the case of `COc1cc2c(cc1OC)C(C(C(=O)N(CCc1ccc(OC)c(OC)c1OC)CCc1ccc(OC)c(OC)c1OC)c1ccccc1)=NCC2.Cl` (stereo not drawn) [Pinokalant hydrochloride], the IC50 in series [1] is 37.3 µM; in series [2] it was 19.6 µM; in series [3], 0.57 µM. The “Luciferase IC50 (half-maximal inhibitory concentration)” value in series [4] is “Inactive”. Besides, in series [5], the “CYP2C9 Efficacy” value is listed as 11.86 ± 0.77 (-103 ± 7) %. For the same compound, in series [6], the “CYP2D6 Efficacy” value was 9.34 ± 4.19 (-64 ± 10) %.

Take `COC(=O)c1c(C)cc(O)c(C)c1O`: the IC50 in series [1] was determined as 0.24 µM; in series [3], 53.2 µM; in series [5] it was 50.2 µM; in series [6] it was 33 µM. In series [2], the “CYP2C19 Efficacy” value is listed as 6.41 ± 1.34 (-140 ± 12) %. The “Luciferase IC50 (half-maximal inhibitory concentration)” value in series [4] is listed as “Inactive”.

Turning to `COS(=O)(=O)[O-].Cn1c(-c2ccccc2)cc(-c2ccccc2)[n+]1C` [Difenzoquat metilsulfate], in series [1], the “CYP1A2 IC50” value is “Inactive”. Further, the “CYP2C19 IC50” value in series [2] is reported as “Inactive”. For the same compound, the “CYP3A4 IC50” value in series [3] is given as “Inactive”. Also, in series [4], the “Luciferase IC50” value is “Inactive”. Further, the “CYP2C9 IC50” value in series [5] was “Inactive”. Further, the IC50 in series [6] was 0.44 µM.

As to `COC(=O)c1cncn1C(C)c1ccccc1.Cl` (stereo not drawn) [Metomidate hydrochloride], in series [1], the “CYP1A2 IC50 (half-maximal inhibitory concentration)” value is on record as “Inactive”. Further, the IC50 was found to be 4.05 µM in series [2], 0.25 µM in series [3], 34 µM in series [5] and 5.65 µM in series [6]. Moreover, the “Luciferase IC50 (half-maximal inhibitory concentration)” value in series [4] is listed as “Inactive”.
